Experimental data from patent US10906977B2, “Enhancing the therapeutic activity of immune checkpoint inhibitor” (Maine Medical Center Research Institute, priority 2016, dated 2021).

Experiments:
[1] = test system: endothelial cells (HUVECs); assay: Actin stress fiber formation in endothelial cells attached to collagen peptides; assay type: cell-based, human; conditions: FIG. 7G
Description: CAMs examined for accumulation of granulation tissue were harvested, fixed in 4% PFA and paraffin embedded and sectioned (4 μm) and stained with Giemsa. CAM tissues analyzed via immunofluorescence were harvested, embedded with OCT, snap frozen and sectioned ([…]). Frozen sections were fixed in 50% methanol/50% acetone, air dried and blocked with 2.5% BSA for 1 h at 37° C. For expression of the XL313 and XL166 epitopes as well as monocyte/macrophages, FGF-2 stimulated CAM tissues were stained with Mabs XL313, XL166 (50 μg/ml) or KUL1 (1:250) and then incubated with Alexa-488 labeled secondary antibodies (1:2000 dilution). Co-staining of monocytes/macrophages and the Mab XL313 reactive epitope in FGF-2 stimulated CAMs was performed by sequential staining by first probing with KUL1 (1:250) and then with a biotinconjugated Mab XL313 (50 μg/ml), and with secondary antibodies Alexa-488 and streptavidin Alexa-594 (1:2000) respectively. Using a similar strategy, sections of RGD peptide-treated CAM tissues were analyzed for phosphorylated-P38MAPK in angiogenic vessels by co-incubation of anti-phospho-P38MAPK (1:50) and anti-vWf (1:500) antibodies. […] Cells were allowed to attach for 15, 30, or 60 min in the absence of serum and were fixed with 4% PFA. Fixed cells were washed and blocked with 2.5% BSA and stained with anti-YAP (1:200) and phalloidin (1:500). […]

β3-integrin = target: T1, β3-integrin (Homo sapiens, UniProt P05106+P06756); assay: β3-integrin phosphorylation in endothelial cells attached to collagen peptides (Western blot); assay type: cell-based; conditions: absence of growth factors; FIG. 7C
T1 construct: endogenous in cells; host or cells: HUVEC
T1 sequence (P05106 27-788): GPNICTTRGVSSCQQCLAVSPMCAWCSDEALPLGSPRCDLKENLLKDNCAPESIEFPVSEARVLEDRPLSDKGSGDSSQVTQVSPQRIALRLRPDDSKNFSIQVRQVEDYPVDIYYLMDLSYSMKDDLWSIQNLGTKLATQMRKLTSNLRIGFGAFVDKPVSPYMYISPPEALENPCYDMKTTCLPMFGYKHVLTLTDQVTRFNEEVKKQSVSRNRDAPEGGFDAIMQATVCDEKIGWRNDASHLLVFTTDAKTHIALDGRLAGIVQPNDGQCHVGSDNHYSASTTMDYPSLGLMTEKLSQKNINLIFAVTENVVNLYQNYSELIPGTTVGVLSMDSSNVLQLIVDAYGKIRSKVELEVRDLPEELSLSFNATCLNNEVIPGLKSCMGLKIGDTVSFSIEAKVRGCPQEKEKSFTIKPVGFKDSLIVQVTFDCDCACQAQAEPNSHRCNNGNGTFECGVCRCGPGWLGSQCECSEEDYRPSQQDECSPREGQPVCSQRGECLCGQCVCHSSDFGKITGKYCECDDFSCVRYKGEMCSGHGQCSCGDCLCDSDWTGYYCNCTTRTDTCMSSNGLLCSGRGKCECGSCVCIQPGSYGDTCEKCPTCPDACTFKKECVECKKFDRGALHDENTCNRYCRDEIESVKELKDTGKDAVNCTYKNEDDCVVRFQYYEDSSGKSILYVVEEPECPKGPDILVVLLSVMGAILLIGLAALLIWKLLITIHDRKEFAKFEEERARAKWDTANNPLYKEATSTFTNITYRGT
T1 sequence (P06756 31-889 limits assumed): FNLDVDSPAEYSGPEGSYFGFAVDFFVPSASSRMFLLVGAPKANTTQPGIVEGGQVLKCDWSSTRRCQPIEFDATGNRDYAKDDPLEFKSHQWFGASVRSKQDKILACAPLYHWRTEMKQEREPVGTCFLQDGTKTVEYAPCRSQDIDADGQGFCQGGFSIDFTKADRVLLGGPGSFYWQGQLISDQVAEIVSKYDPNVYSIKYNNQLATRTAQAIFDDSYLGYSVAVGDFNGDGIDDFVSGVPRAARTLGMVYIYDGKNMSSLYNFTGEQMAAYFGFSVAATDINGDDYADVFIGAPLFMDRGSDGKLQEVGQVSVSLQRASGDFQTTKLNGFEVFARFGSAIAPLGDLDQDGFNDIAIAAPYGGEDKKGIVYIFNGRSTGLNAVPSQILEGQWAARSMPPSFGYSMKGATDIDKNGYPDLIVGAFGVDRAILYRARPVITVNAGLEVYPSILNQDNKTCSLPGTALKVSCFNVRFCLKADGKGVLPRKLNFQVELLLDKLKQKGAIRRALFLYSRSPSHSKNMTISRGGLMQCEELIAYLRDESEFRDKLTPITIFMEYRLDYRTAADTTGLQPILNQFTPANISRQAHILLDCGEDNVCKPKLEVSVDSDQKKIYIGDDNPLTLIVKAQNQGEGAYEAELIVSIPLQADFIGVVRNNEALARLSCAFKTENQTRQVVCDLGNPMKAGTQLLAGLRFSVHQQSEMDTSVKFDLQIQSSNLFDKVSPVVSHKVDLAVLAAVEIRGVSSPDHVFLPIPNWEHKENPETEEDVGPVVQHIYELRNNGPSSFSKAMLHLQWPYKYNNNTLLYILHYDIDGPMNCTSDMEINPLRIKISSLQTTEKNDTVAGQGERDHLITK
T1 sequence (P06756 891-1048 partner limits assumed): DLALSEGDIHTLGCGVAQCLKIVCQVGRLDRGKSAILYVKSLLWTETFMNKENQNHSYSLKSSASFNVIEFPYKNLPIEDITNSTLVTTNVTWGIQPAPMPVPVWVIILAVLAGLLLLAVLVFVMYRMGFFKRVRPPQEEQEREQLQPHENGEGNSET
Description: (§1) Endothelial cells (HUVECs or HRMVECs) were incubated in serum free media with 1 mM MgCl2, 0.2 mM MnCl2 in the presence of a Src inhibitor, PP2, (10 μM) a P38MAPK inhibitor, SB202190 (10 μM) or vehicle only (DMSO) for 10 min at 37° C. Treated cells were then seeded on to immobilized P-1 and P-2 and lysates were collected at 15 min.
(§2) Whole cell and CAM tissue lysates were collected in RIPA buffer supplemented with 1× protease inhibitor and 1× phosphatase inhibitor and were run on polyacrylamide gels using denaturing conditions. Prior to loading the gels, 6× sample buffer was added to each of the lysates (final concentration 1×) and boiled for five minutes. Twenty to 50 μg of total protein were loaded into each lane. […] Gels were run at 60 volts (v) until the dye front passed through the stacking gel, and then the voltage was increased to 100V for the remainder of the separation. Precision Plus protein standards (Bio-Rad) were used to visualize migration. Protein was transferred to nitrocellulose membranes using a wet tank system and blocked for 1 h using 10% non-fat dried milk in tris-buffered saline with 0.01% Tween-20 (TBS-T). […] Membranes were washed 3 times in TBS-T for five minutes. Blots were then incubated with HRP conjugated secondary antibodies (1:15000) in 1% non-fat milk in TBS-T for 1 h. […] Western blot bands were quantified using Image J software based on pixel intensity.

LAG3 = assay: Checkpoint molecule expression in human T-cell lines stimulated with collagen peptides (Western blot); assay type: cell-based; conditions: Jurkat and CCL120.1; FIG. 35
Description: In order to confirm the functional ability of the XL313 cryptic collagen peptide P2 to regulate expression of the immune suppressive checkpoint molecule LAG3, αvβ3 expressing human T-cell lines Jurkat and CCL120.1 were stimulated with the cryptic collagen peptide P2 or control collagen peptides P1 or PC. Whole cell lysates from were analyzed for expression of PD-L1 and beta actin (β-Actin).

Fak = Fak phosphorylation in endothelial cells attached to collagen peptides; assay type: cell-based, human; conditions: serum free conditions
Description: Whole cell and CAM tissue lysates were collected in RIPA buffer supplemented with 1× protease inhibitor and 1× phosphatase inhibitor and were run on polyacrylamide gels using denaturing conditions. Prior to loading the gels, 6× sample buffer was added to each of the lysates (final concentration 1×) and boiled for five minutes. Twenty to 50 μg of total protein were loaded into each lane. For detection of proteins larger than 50 kD, 10% gels were used; for proteins smaller than 50 kD 15% gels were used. Gels were run at 60 volts (v) until the dye front passed through the stacking gel, and then the voltage was increased to 100V for the remainder of the separation. Precision Plus protein standards (Bio-Rad) were used to visualize migration. Protein was transferred to nitrocellulose membranes using a wet tank system and blocked for 1 h using 10% non-fat dried milk in tris-buffered saline with 0.01% Tween-20 (TBS-T). […] Western blot bands were quantified using Image J software based on pixel intensity.

P38MAPK = assay: Phosphorylated P38MAPK in HUVECs attached to collagen peptides (Western blot); assay type: cell-based, human; conditions: cells attached to peptide; FIG. 6D
Description: as §1, §2

In the case of CQGPRGDKGEC [Mab P-2], the “actin stress fiber formation as compared to P-1” value [1] is reported as “accelerated actin stress fiber formation”, the “increase of β3 phosphorylation as compared to P-1” value (β3-integrin) is reported as “over 3 fold” and the “expression of LAG3 in human T-cells” value (LAG3) is reported as “induces expression of the immunosuppressive molecule LAG3”. The “levels of PD-L1 in stimulated T-cells as compared to controls” value (LAG3) was “clear increase in the levels of PD-L1”, the “Fak phosphorylation following ligation of peptide” value (Fak) was “Minimal Fak phosphorylation” and the “phosphorylation of P38MAPK in HUVECs, as compared to P-1” value (P38MAPK) was “enhanced phosphorylation of P38MAPK”.
